Data on 15 compounds can be found in patent publication US9879006B2, “Azaindole acetic acid derivatives and their use as prostaglandin D2 receptor modulators” (IDORSIA PHARMACEUTICALS LTD, priority 2014, dated 2018).

One may read the IC50 as the concentration needed to halve the response being measured.

Bounds are passed on as bounds.

The test system of data set [1] is primary cultured rat hepatocytes. The data set can be described thus: In vitro cytotoxicity in primary cultured rat hepatocytes. Particulars: 24 h treatment, cell morphology and LDH leakage, highest test concentration 300 μM; for LCC (lowest cytotoxic concentration): 300s = only slight cytotoxicity at 300 μM. It counts as cell-based. The source says:
In Vitro Cytotoxicity in Primary Cultured Rat Hepatocytes
Adult male Wistar rats were narcotized with sodium pentobarbital and hepatocytes were isolated according to a standard procedure, i.e. by in situ perfusion of the liver with a collagenase solution. The viability of the purified hepatocytes, checked by the trypan blue dye exclusion method was greater than 85%. The isolated hepatocytes were resuspended in standard Williams Medium E, without phenol red, supplemented (WME supp.) with transferrin (100 μg/ml), triiodothyronine (10 μg/ml), gentamicin (50 μg/ml), hydrocortison hemisuccinate (13.36 μg/ml), glucagon (5 μg/ml), HEPES (10 mM), inosin (10 μg/ml), insulin (10 μg/ml), streptomycin (100 μg/ml) and penicillin (100 U/ml) and 10% fetal bovine serum (FBS). The cells were plated in collagen-coated 24-well plates at an initial density of 2×10^5 cells/well. After 4 h for attachment to the culture-plates, the medium was aspirated and replaced by fresh WME supp. without FBS containing the test compounds and incubated for 24 h at 37° C. in a […] and 5% CO2 atmosphere. For each experiment, i.e., with each batch of hepatocytes, treatments with the test compounds were done in quadriplicate. Quadriplicate controls (treatment with the vehicle only) were also present on each culture plate.
Stock solutions of the test compounds were prepared in DMSO a few hours before treatment start. Appropriate dilutions of these stock solutions were added to the culture media just prior to the treatment in order to give final concentrations of 0, 3, 10, 30, 100 and 300 μM. The final concentration of the vehicle DMSO was 1% (v/v).
The morphology of the hepatocyte monolayers was monitored by light microscopy after 24 hours of exposure to the test compounds. Treatment related effects are described according to the following grading: • 0 No morphological alterations observed upon treatment when compared to the control cultures • 1-3 Treatment resulting in any morphological changes, e.g. intracellular granulation, vacuolization or cell death. Depending on the severity, these changes were regarded as slight (1), moderate (2) or strong (3). • K Treatment resulting in 100% dead cells and/or the complete detachment of the monolayer yielding a clear cell-free dish.
After 24 h treatment of the hepatocyte cultures, aliquots of culture medium were carefully collected and used for the analysis of lactate dehydrogenase (LDH) activity by spectrophotometry using the LDH cytotoxicity detection kit from Clontech (cat No. 630117, Mountain View, Calif., USA). For each experiment, additional cultures were used for the determination of total intracellular LDH activity at treatment start. For this purpose, 4 wells of cell culture per experiment were washed with cold saline before treatment start, sonicated in fresh medium and the homogenate was analyzed for total LDH activity. Enzyme activities in the culture media were assessed and expressed as percentage of the total activity present in the cultured hepatocytes at the beginning of the treatments.
The lowest cytotoxic concentration (LCC) and the no effect concentration (NoEC) are given for each compound, based on cell morphology and LDH leakage after 24 h treatment. LCC is defined as the lowest concentration of the test compound leading to a clear effect on the cultured rat hepatocytes (morphology grading≧2 or ≧2-fold increase in LDH leakage). A LCC value of >300 μM indicates the absence of effect on both endpoints at the highest test concentration of 300 μM. […] NoEC is defined as the highest test concentration of the compound which was without an effect on the cultured rat hepatocytes (morphology and LDH leakage).
A general note: LDH in the medium is a marker of cell lysis.

The target in data set [2] is T1, hCRTH2 receptor (Homo sapiens, UniProt Q9Y5Y4).
T1 construct: expressed in transfected cells; host or cells: HEK293 (recombinant HEK293-hCRTH2), membrane fragments
T1 sequence (Q9Y5Y4 1-395): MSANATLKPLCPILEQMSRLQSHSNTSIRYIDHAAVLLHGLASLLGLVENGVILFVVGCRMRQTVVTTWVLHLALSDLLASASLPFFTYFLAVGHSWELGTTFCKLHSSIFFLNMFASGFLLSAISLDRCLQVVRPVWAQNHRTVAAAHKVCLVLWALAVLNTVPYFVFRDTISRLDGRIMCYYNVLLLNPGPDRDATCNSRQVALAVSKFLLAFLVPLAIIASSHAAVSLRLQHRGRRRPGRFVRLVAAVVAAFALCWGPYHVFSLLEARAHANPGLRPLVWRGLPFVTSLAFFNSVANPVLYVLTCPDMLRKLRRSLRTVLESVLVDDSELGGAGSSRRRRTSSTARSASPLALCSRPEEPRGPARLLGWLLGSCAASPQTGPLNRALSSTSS
The data set can be described thus: hCRTH2 receptor membranes radioligand displacement assay. Particulars: displacement of 3H-PGD2 (2.5 nM), HEK293-hCRTH2 membrane fragments, Binding-Buffer with 0.1% BSA. The method, then:
Preparation of hCRTH2 Receptor Membranes and Radioligand Displacement Assay:
(§1) First, recombinant HEK293-hCRTH2 cells were detached from culture plates into 5 ml buffer A/plate (Buffer A: 5 mM Tris, 1 mM MgCl2-6H2O pH=7.4) using a rubber policeman. Cells were then transferred into centrifugation tubes and centrifuged for 5 min at 400 g. The cell pellet was resuspended in the same buffer and tubes were frozen at 80° C. Cells were thawed and membrane fragments were generated by homogenization using a polytron homogenizer (30 seconds). The membrane fragments were then centrifuged at 3000 g for 20 minutes and resuspended in buffer C (Buffer C: 75 mM Tris, 25 mM MgCl2, 250 mM Saccharose pH 7.4). Aliquots of membrane fragments were stored at −20° C.
(§2) Binding assay was performed in a final assay volume of 250 μl. First, 25 μl of test compound, previously diluted in Binding-Buffer (Binding-Buffer: 50 mM Tris-Base, 100 mM NaCl, 1 mM EDTA, 0.1% BSA (protease free), 0.01% NaN3, 10 mM MnCl2 pH 7.0) was placed into each well. After addition of 75 μl Binding-Buffer, 50 μl of the radioligand ^3H-PGD2 (at 2.5 nM (220.000 dpm/well) from ANAWA ART0662) was added to each well. Binding assay was started by addition of 100 μl CRTH2 membrane fragments, reaching a final concentration of 20 μg/well. For non-specific binding, PGD2 was added to the reaction mixture to […] final concentration. This assay mix was incubated for 90 minutes at room temperature and then filtered through a GF/C filter 96-well plate which was pre-soaked for 3 hours in 0.5% polyethyleneimine (PEI). The filter-wells were washed three times with ice cold Binding-Buffer. Then, 40 μl of Microscint-40 (Packard) was added to each well and the retained radioactivity quantified in a Topcount (Packard).

Data set [3] addresses T1, hCRTH2 receptor. The data set can be described thus: Radioligand displacement assay in presence of human serum albumin (HSA). As to conditions: displacement of 3H-PGD2, Binding-Buffer with 0.5% human serum albumin instead of 0.1% BSA. The method, then: as §1, §2
Radioligand Displacement Assay-Human Serum Albumin (HSA):
Radioligand displacement assay in presence of human serum albumin (HSA) was performed as described above, with following modifications. Binding-Buffer-HSA: Binding-buffer+0.5% Sigma Albumin from Human serum A1887 (instead of 0.1% BSA). A volume of 25 μl test compound, previously diluted in Binding-Buffer-HSA was placed into each well. After addition of 75 μl Binding-Buffer-HSA, 50 μl of ^3H-PGD2 (at 2.5 nM (220.000 dpm/well) from ANAWA ART0662) was added to each well. Remaining protocol was identical as described above.
(In general: In a radioligand displacement assay an active substance lowers the binding of a labelled ligand.)

In data set [4] the test system is eosinophils (PGD2-induced shape change). The data set can be described thus: Eosinophil shape change assay with human plasma. The data set is classed as cell-based. As to conditions: human polymorphonuclear cells, 50% human plasma, activated with PGD2 100 nM, flow cytometry forward-scatter. The protocol: Eosinophil Shape Change Assay with Human Plasma
After obtaining informed consent, blood samples were drawn by venipuncture according to the protocol approved by the ethics committee of Basel, Switzerland. Polymorphonuclear leukocytes (containing eosinophils, basophils and neutrophils) were isolated using the Polymorphprep™ method (Axis-Shield). In brief, anticoagulated whole blood was layered onto a Polymorphprep gradient (density 1.113 g/ml) and centrifuged at 500 g for 30 min. The polymorphonuclear cell fraction was harvested and depleted for erythrocytes by hypotonic saline lysis.
The polymorphonuclear cells were resuspended in assay buffer (1×PBS with Ca^2+/Mg^2+ supplemented with 0.1% BSA, 10 mM HEPES, and 10 mM Glucose, pH 7.4) at 5×10^6 cells/ml and stained with anti-CD49d-APC ((APC=Allophycocyanin) for 1 hour at RT. Test compounds, at various concentrations, were preincubated 10 min in human plasma (anticoagulated with a thrombin inhibitor). Then, human plasma was added to the polymorphonuclear cells to 50% of final assay volume with polymorphonuclear cells at 4×10^6 cells/ml. After incubation for 10 minutes at 37° C., the polymorphonuclear cells were activated for 5 min at 37° C. by addition of PGD2 at 100 nM final concentration. Activation was stopped by addition of 0.5 ml paraformaldehyde (1%).
Immediately after fixation with paraformaldehyde, the samples were analyzed by FACSCanto flow cytometer (BD Biosciences) and target cells were identified by their forward-scatter (FSC) and side-scatter (SSC) characteristics. Eosinophils were identified by the anti-CD49d-APC signal and their characteristic side-scatter (SSC) profile. Shape change responses, indicative of eosinophil activation, were quantified as the percent of cells with an increased forward-scatter.
Background: A flow cytometer gives signals particle by particle.

As to `CN(c1ncc(Cl)cn1)[C@H]1CCc2c(c3cc(F)ccc3n2CC(=O)O)C1`, in data set [1], the “NoEC (no effect concentration)” value turned out to be 30 µM and the “LCC (lowest cytotoxic concentration)” value amounted to 300 µM.

Consider `Cc1ccc2c(n1)c1c(n2CC(=O)O)CCC(N(C)c2ncc(Cl)cn2)C1` (stereo not drawn) [Example 1, 2-(8-((5-chloropyrimidin-2-yl)(methyl)amino)-2-methyl-6,7,8,9-tetrahydro-5H-pyrido[3,2-b]indol-5-yl)acetic acid], for which the values for the IC50 (on hCRTH2 receptor [2]; at hCRTH2 receptor [3]; in data set [4]) were 1.9 nM, 3.9 nM and 71 nM, respectively.

In the case of `CN(c1ncc(Cl)cn1)C1CCc2c(c3nc(F)ccc3n2CC(=O)O)C1` (stereo not drawn) [Example 2, 2-(8-((5-chloropyrimidin-2-yl)(methyl)amino)-2-fluoro-6,7,8,9-tetrahydro-5H-pyrido[3,2-b]indol-5-yl)acetic acid], the IC50 on hCRTH2 receptor [2] stood at 3.1 nM; at hCRTH2 receptor [3], 2.3 nM; in data set [4], 4.2 nM.

As to `COc1ccc2c(n1)c1c(n2CC(=O)O)CCC(N(C)c2ncc(Cl)cn2)C1` (stereo not drawn) [Example 3, 2-(8-((5-chloropyrimidin-2-yl)(methyl)amino)-2-methoxy-6,7,8,9-tetrahydro-5H-pyrido[3,2-b]indol-5-yl)acetic acid], the values for the IC50 (on hCRTH2 receptor [2]; on hCRTH2 receptor [3]; in data set [4]) were 13 nM, 13 nM and 148 nM, respectively.

As to `CN(c1ncc(Cl)cn1)C1CCc2c(c3nc(C(F)(F)F)ccc3n2CC(=O)O)C1` (stereo not drawn) [Example 4, 2-(8-((5-chloropyrimidin-2-yl)(methyl)amino)-2-(trifluoromethyl)-6,7,8,9-tetrahydro-5H-pyrido[3,2-b]indol-5-yl)acetic acid], the IC50 at hCRTH2 receptor [2] stood at 10 nM; on hCRTH2 receptor [3], 16 nM; in data set [4], 417 nM.

For the compound `O=C(O)Cn1c2c(c3ncccc31)CC(Nc1ncc(Cl)cn1)CC2` (stereo not drawn) [Example 5, 2-(8-((5-chloropyrimidin-2-yl)-amino)-6,7,8,9-tetrahydro-5H-pyrido[3,2-b]indol-5-yl)acetic acid], the IC50 on hCRTH2 receptor [2] came to 19 nM; on hCRTH2 receptor [3] it was 22 nM; in data set [4] it was 88 nM.

In the case of `CN(c1ncc(Cl)cn1)[C@H]1CCc2c(c3ncccc3n2CC(=O)O)C1` [Example 6, (S)-2-(8-((5-chloropyrimidin-2-yl)(methyl)amino)-6,7,8,9-tetrahydro-5H-pyrido[3,2-b]indol-5-yl)acetic acid], the IC50 at hCRTH2 receptor [2] amounted to 2.3 nM; at hCRTH2 receptor [3], 2.1 nM; in data set [4], 5.8 nM.

In the case of `Cc1ccc2c(n1)c1c(n2CC(=O)O)CCC(N(C)c2ncc(Cl)cn2)C1` (stereo not drawn) [drawing 27], in data set [1], the “NoEC (no effect concentration)” value is above 300 µM and the “LCC (lowest cytotoxic concentration)” value was above 300 µM.

`CN(c1ncc(Cl)cn1)C1CCc2c(c3nc(F)ccc3n2CC(=O)O)C1` (stereo not drawn) [drawing 28]: in data set [1], the “NoEC (no effect concentration)” value is above 300 µM and the “LCC (lowest cytotoxic concentration)” value is above 300 µM.

With `COc1ccc2c(n1)c1c(n2CC(=O)O)CCC(N(C)c2ncc(Cl)cn2)C1` (stereo not drawn) [drawing 29], in data set [1], the “NoEC (no effect concentration)” value was 100 µM and the “LCC (lowest cytotoxic concentration)” value came to 300 s.

In the case of `CN(c1ncc(Cl)cn1)C1CCc2c(c3nc(C(F)(F)F)ccc3n2CC(=O)O)C1` (stereo not drawn) [drawing 30], in data set [1], the “NoEC (no effect concentration)” value turned out to be 100 µM and the “LCC (lowest cytotoxic concentration)” value came to 300 s.

On to `CN(c1ncc(Cl)cn1)[C@H]1CCc2c(c3ncccc3n2CC(=O)O)C1` [drawing 31], for which, in data set [1], the “NoEC (no effect concentration)” value is above 300 µM and the “LCC (lowest cytotoxic concentration)” value is above 300 µM.

Regarding `CN(c1ncc(Cl)cn1)[C@H]1CCc2c(c3ncccc3n2CC(=O)O)C1` [drawing 32], in data set [1], the “NoEC (no effect concentration)” value turned out to be 30 µM and the “LCC (lowest cytotoxic concentration)” value was determined as 300 µM.

On to `CN(c1ncc(Cl)cn1)[C@H]1CCc2c(c3nc(F)ccc3n2CC(=O)O)C1` [drawing 33], for which, in data set [1], the “NoEC (no effect concentration)” value is above 300 µM and the “LCC (lowest cytotoxic concentration)” value was above 300 µM.

For `O=C(O)Cn1c2c(c3nc(F)ccc31)C[C@@H](Nc1ncc(Cl)cn1)CC2` [drawing 35], in data set [1], the “NoEC (no effect concentration)” value is above 300 µM and the “LCC (lowest cytotoxic concentration)” value was above 300 µM.
